Experimental data as given in patent US12281122B1, “PI3K inhibitors” (Cogent Biosciences, Inc., priority 2023, dated 2025).

Tests used:
PI3Kα = PI3Kα (Homo sapiens, UniProt P42336); assay: PI3Kα enzyme assay (Transcreener ADP2 TR-FRET Red Assay); assay type: biochemical; conditions: purified recombinant full-length protein; 2 hours pre-incubation with compound; read-out: PI3Kα WT IC50
Outline: (§1)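 IC50 taken at 50 POC from a four-parameter logistic fit of TR-FRET (665/615 nm) ADP signal. Reactions used full-length recombinant enzyme, compound pre-incubation for 2 h, then 60 min with ATP and PI(4,5)P2 diC8 substrate at room temperature, pH 7.5 HEPES buffer with 25 mM MgCl2; compounds tested from 50,000 to 0.85 nM.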

[1] = test system: SKBR3 (PI3Kα-Wild Type) cell line; assay: HTRF phospho-AKT(S473) cell assay in SKBR3 cells; assay type: cell-based, human; conditions: Homo sapiens, SK-BR-3; SKBR3 (PI3Kα-Wild Type) cells, HTRF phospho-AKT(S473), 2 hours compound incubation, PDGF-BB stimulated
Outline: (§2)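 T47D: RPMI + 10% FBS + 0.2 units/mL insulin, top 5 μM. SKBR3: McCoy's 5A + 10% FBS, top 10 μM, 70 ng/ml PDGF-BB last 15 min. Both: 12-pt 1:3, 2 h, 37° C, max 0.5% DMSO; HTRF pAKT(S473); IC50.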

[2] = test system: T47D (PI3Kα-H1047R) cell line; assay: HTRF phospho-AKT(S473) cell assay in T47D cells; assay type: cell-based, human; conditions: Homo sapiens; T47D (PI3Kα-H1047R) cells, HTRF phospho-AKT(S473), 2 hours compound incubation
Outline: as §2

PI3Kα H1047R = PI3Kα H1047R (Homo sapiens, UniProt P42336, H1047R); assay: PI3Kα H1047R enzyme assay (Transcreener ADP2 TR-FRET Red Assay); assay type: biochemical; conditions: purified recombinant full-length protein; 2 hours pre-incubation with compound
PI3Kα H1047R, sequence (P42336 whole entry H1047R): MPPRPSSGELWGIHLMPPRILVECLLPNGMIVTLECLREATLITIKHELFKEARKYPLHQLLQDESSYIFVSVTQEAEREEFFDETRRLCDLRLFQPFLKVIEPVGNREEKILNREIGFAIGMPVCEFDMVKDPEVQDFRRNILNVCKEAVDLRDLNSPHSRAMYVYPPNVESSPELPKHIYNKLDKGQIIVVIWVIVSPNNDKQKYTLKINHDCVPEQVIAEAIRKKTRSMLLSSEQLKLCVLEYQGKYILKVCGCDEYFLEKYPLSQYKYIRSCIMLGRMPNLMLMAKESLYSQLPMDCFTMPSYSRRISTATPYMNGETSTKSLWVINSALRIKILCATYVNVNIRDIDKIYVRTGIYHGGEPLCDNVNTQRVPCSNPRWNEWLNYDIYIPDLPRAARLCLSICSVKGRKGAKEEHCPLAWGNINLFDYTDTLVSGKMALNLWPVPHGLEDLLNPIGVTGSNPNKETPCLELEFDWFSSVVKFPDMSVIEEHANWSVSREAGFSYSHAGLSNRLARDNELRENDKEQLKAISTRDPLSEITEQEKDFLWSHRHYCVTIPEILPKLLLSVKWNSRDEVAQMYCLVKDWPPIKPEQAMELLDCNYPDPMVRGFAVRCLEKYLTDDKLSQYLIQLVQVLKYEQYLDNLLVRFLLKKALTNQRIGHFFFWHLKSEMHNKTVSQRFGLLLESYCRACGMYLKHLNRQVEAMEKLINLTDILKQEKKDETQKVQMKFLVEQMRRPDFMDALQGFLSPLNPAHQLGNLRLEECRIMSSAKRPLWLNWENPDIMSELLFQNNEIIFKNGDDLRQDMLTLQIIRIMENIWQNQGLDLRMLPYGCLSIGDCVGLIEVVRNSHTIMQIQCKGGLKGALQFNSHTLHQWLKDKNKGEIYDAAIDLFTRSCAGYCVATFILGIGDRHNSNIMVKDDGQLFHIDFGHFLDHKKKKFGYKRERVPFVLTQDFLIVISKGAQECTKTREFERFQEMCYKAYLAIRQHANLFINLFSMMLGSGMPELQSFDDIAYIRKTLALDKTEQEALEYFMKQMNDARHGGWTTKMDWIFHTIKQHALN
PI3Kα H1047R, sequence (P27986 2-724 partner): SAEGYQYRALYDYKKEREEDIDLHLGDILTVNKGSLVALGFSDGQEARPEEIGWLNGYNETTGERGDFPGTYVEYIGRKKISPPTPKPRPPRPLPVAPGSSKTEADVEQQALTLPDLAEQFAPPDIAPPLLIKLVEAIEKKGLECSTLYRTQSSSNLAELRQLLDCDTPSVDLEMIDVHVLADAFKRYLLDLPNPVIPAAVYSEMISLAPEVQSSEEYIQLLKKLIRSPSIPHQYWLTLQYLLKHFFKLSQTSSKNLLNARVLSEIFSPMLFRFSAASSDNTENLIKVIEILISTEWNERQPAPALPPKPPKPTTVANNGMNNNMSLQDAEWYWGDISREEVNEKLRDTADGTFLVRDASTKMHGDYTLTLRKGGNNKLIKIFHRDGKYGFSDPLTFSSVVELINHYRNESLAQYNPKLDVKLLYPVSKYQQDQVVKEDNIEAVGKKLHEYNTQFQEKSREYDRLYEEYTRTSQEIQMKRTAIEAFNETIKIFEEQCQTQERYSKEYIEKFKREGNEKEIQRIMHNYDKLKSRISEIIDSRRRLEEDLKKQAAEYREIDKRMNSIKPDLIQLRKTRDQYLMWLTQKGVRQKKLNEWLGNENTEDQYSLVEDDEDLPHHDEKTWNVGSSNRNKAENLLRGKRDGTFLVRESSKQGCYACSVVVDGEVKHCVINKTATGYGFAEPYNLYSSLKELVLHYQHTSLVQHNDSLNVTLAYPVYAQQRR
Outline: as §1

PI3Kα, sequence (P42336 whole entry): as the sequence (P42336 whole entry H1047R) above, with R1047H counted along it
PI3Kα, sequence (P27986 2-724 partner): as the sequence (P27986 2-724 partner) above

Row | SMILES | IC50 (PI3Kα) | IC50 [1] | IC50 [2] | IC50 (PI3Kα H1047R)
1 | Cc1cc([C@@H](C)Nc2ccc(Cl)nc2C(=O)NS(C)(=O)=O)c2nc(NCC(F)(F)F)n(C)c(=O)c2c1 [Compound 34, (R)-6-chloro-3-((1-(3,6-dimethyl-4-oxo-2-((2,2,2-trifluoroethyl)amino)-3,4-dihydroquinazolin-8-yl)ethyl)amino)-N-(methylsulfonyl) picolinamide] | ≥ 1 µM | 1 to 5 µM | 0.25 to 0.5 µM | 0.5 to 1 µM
2 | Cc1cc([C@@H](C)Nc2cc(C)c(Cl)nc2C(=O)NS(C)(=O)=O)c2nc(N3Cc4ccc(F)cc4C3)n(C)c(=O)c2c1 [Compound 35, (R)-6-chloro-3-((1-(2-(5-fluoroisoindolin-2-yl)-3,6-dimethyl-4-oxo-3,4-dihydroquinazolin-8-yl)ethyl)amino)-5-methyl-N-(methylsulfonyl) picolinamide] | ≥ 1 µM | ≥ 5 µM | 1 to 5 µM | ≥ 1 µM
3 | Cc1cc([C@@H](C)Nc2ccc(Cl)nc2C(=O)NS(C)(=O)=O)c2nc(N3CCO[C@@H](C)C3)n(C)c(=O)c2c1 [Compound 36, 6-chloro-3-(((R)-1-(3,6-dimethyl-2-((S)-2-methylmorpholino)-4-oxo-3,4-dihydroquinazolin-8-yl)ethyl)amino)-N-(methylsulfonyl) picolinamide] | ≥ 1 µM | 1 to 5 µM | 0.25 to 0.5 µM | ≥ 1 µM
4 | C[C@@H](Nc1ccc(Cl)nc1C(=O)NS(C)(=O)=O)c1cc(F)cc2c(=O)n(C)c(N3Cc4cn(C)nc4C3)nc12 [Compound 37, (R)-6-chloro-3-((1-(6-fluoro-3-methyl-2-(2-methyl-2,6-dihydropyrrolo[3,4-c]pyrazol-5(4H)-yl)-4-oxo-3,4-dihydroquinazolin-8-yl)ethyl)amino)-N-(methylsulfonyl) picolinamide] | ≥ 1 µM | 0.5 to 1 µM | < 0.25 µM | 0.25 to 0.5 µM
5 | C[C@@H](Nc1ccc(Cl)nc1C(=O)NS(C)(=O)=O)c1cccc2c(=O)n(C)c(N3Cc4cnn(C)c4C3)nc12 [Compound 38, (R)-6-chloro-3-((1-(3-methyl-2-(1-methyl-4,6-dihydropyrrolo[3,4-c]pyrazol-5(1H)-yl)-4-oxo-3,4-dihydroquinazolin-8-yl)ethyl)amino)-N-(methylsulfonyl) picolinamide] | ≥ 1 µM | 1 to 5 µM | 0.25 to 0.5 µM | 0.5 to 1 µM
6 | C[C@@H](Nc1ccc(Cl)nc1C(=O)NS(C)(=O)=O)c1cccc2c(=O)n(C)c(N3CCC(F)(F)CC3)nc12 [Compound 39, (R)-6-chloro-3-((1-(2-(4,4-difluoropiperidin-1-yl)-3-methyl-4-oxo-3,4-dihydroquinazolin-8-yl)ethyl)amino)-N-(methylsulfonyl) picolinamide] | ≥ 1 µM | 1 to 5 µM | < 0.25 µM | 0.5 to 1 µM
7 | Cc1cc([C@@H](C)Nc2ccc(Cl)nc2C(=O)NS(C)(=O)=O)c2nc(N(C)C)n(C)c(=O)c2c1 [Compound 40, (R)-6-chloro-3-((1-(2-(dimethylamino)-3,6-dimethyl-4-oxo-3,4-dihydroquinazolin-8-yl)ethyl)amino)-N-(methylsulfonyl) picolinamide] | ≥ 1 µM | 1 to 5 µM | 0.25 to 0.5 µM | ≥ 1 µM
8 | CCn1cc2c(n1)CN(c1nc3c([C@@H](C)Nc4ccc(Cl)nc4C(=O)NS(C)(=O)=O)cc(C)cc3c(=O)n1C)C2 [Compound 44, (R)-6-chloro-3-((1-(2-(2-ethyl-2,6-dihydropyrrolo[3,4-c]pyrazol-5(4H)-yl)-3,6-dimethyl-4-oxo-3,4-dihydroquinazolin-8-yl)ethyl)amino)-N-(methylsulfonyl) picolinamide] | ≥ 1 µM | 1 to 5 µM | < 0.25 µM | 0.1 to 0.25 µM
9 | CCn1ncc2c1CN(c1nc3c([C@@H](C)Nc4ccc(Cl)nc4C(=O)NS(C)(=O)=O)cc(C)cc3c(=O)n1C)C2 [Compound 45, (R)-6-chloro-3-((1-(2-(1-ethyl-4,6-dihydropyrrolo[3,4-c]pyrazol-5(1H)-yl)-3,6-dimethyl-4-oxo-3,4-dihydroquinazolin-8-yl)ethyl)amino)-N-(methylsulfonyl) picolinamide] | 0.5 to 1 µM | 1 to 5 µM | < 0.25 µM | 0.1 to 0.25 µM
10 | Cc1cc([C@@H](C)Nc2ccc(Cl)nc2C(=O)NS(C)(=O)=O)c2nc(N3CC4(COC4)C3)n(C)c(=O)c2c1 [Compound 46, (R)-6-chloro-3-((1-(3,6-dimethyl-4-oxo-2-(2-oxa-6-azaspiro[3.3]heptan-6-yl)-3,4-dihydroquinazolin-8-yl)ethyl)amino)-N-(methylsulfonyl) picolinamide] | ≥ 1 µM | 1 to 5 µM | 0.5 to 1 µM | ≥ 1 µM
11 | Cc1cc([C@@H](C)Nc2ccc(Cl)nc2C(=O)NS(C)(=O)=O)c2nc(N3Cc4cnn(CC5CC5)c4C3)n(C)c(=O)c2c1 [Compound 47, (R)-6-chloro-3-((1-(2-(1-(cyclopropylmethyl)-4,6-dihydropyrrolo[3,4-c]pyrazol-5(1H)-yl)-3,6-dimethyl-4-oxo-3,4-dihydroquinazolin-8-yl)ethyl)amino)-N-(methylsulfonyl) picolinamide] | 0.5 to 1 µM | 1 to 5 µM | < 0.25 µM | < 0.1 µM
12 | Cc1cc([C@@H](C)Nc2ccc(Cl)nc2C(=O)NS(C)(=O)=O)c2nc(N(C)Cc3cnn(C)c3)n(C)c(=O)c2c1 [Compound 48, (R)-6-chloro-3-((1-(3,6-dimethyl-2-(methyl((1-methyl-1H-pyrazol-4-yl)methyl)amino)-4-oxo-3,4-dihydroquinazolin-8-yl)ethyl)amino)-N-(methylsulfonyl) picolinamide] | ≥ 1 µM | 1 to 5 µM | < 0.25 µM | 0.1 to 0.25 µM
13 | Cc1cc([C@@H](C)Nc2ccc(Cl)nc2C(=O)NS(C)(=O)=O)c2nc(N3Cc4cnn(C(C)C)c4C3)n(C)c(=O)c2c1 [Compound 49, (R)-6-chloro-3-((1-(2-(1-isopropyl-4,6-dihydropyrrolo[3,4-c]pyrazol-5(1H)-yl)-3,6-dimethyl-4-oxo-3,4-dihydroquinazolin-8-yl)ethyl)amino)-N-(methylsulfonyl) picolinamide] | ≥ 1 µM | 1 to 5 µM | < 0.25 µM | 0.1 to 0.25 µM
14 | Cc1cc([C@@H](C)Nc2ccc(Cl)nc2C(=O)NS(C)(=O)=O)c2nc(OCc3ccccc3)n(C)c(=O)c2c1 [Compound 50, (R)-3-((1-(2-(benzyloxy)-3,6-dimethyl-4-oxo-3,4-dihydroquinazolin-8-yl)ethyl)amino)-6-chloro-N-(methylsulfonyl) picolinamide] | ≥ 1 µM | 1 to 5 µM | 1 to 5 µM | 0.25 to 0.5 µM
15 | Cc1cc([C@@H](C)Nc2ccc(Cl)nc2C(=O)NS(C)(=O)=O)c2nc(OCC3CC3)n(C)c(=O)c2c1 [Compound 51, (R)-6-chloro-3-((1-(2-(cyclopropylmethoxy)-3,6-dimethyl-4-oxo-3,4-dihydroquinazolin-8-yl)ethyl)amino)-N-(methylsulfonyl) picolinamide] | ≥ 1 µM | 0.5 to 1 µM | < 0.25 µM | < 0.1 µM
16 | Cc1cc([C@@H](C)Nc2ccc(Cl)nc2C(=O)NS(C)(=O)=O)c2nc(OC3CCC3)n(C)c(=O)c2c1 [Compound 52, (R)-6-chloro-3-((1-(2-cyclobutoxy-3,6-dimethyl-4-oxo-3,4-dihydroquinazolin-8-yl)ethyl)amino)-N-(methylsulfonyl) picolinamide] | ≥ 1 µM | 1 to 5 µM | 0.5 to 1 µM | 0.1 to 0.25 µM
17 | Cc1cc([C@@H](C)Nc2ccc(Cl)nc2C(=O)NS(C)(=O)=O)c2nc(N3Cc4cnn(CC(F)(F)F)c4C3)n(C)c(=O)c2c1 [Compound 53, (R)-6-chloro-3-((1-(3,6-dimethyl-4-oxo-2-(1-(2,2,2-trifluoroethyl)-4,6-dihydropyrrolo[3,4-c]pyrazol-5(1H)-yl)-3,4-dihydroquinazolin-8-yl)ethyl)amino)-N-(methylsulfonyl) picolinamide] | ≥ 1 µM | 1 to 5 µM | < 0.25 µM | 0.1 to 0.25 µM
18 | Cc1cc([C@@H](C)Nc2ccc(Cl)nc2C(=O)NS(C)(=O)=O)c2nc(N3Cc4cn(CC(F)(F)F)nc4C3)n(C)c(=O)c2c1 [Compound 54, (R)-6-chloro-3-((1-(3,6-dimethyl-4-oxo-2-(2-(2,2,2-trifluoroethyl)-2,6-dihydropyrrolo[3,4-c]pyrazol-5(4H)-yl)-3,4-dihydroquinazolin-8-yl)ethyl)amino)-N-(methylsulfonyl) picolinamide] | ≥ 1 µM | 1 to 5 µM | < 0.25 µM | 0.1 to 0.25 µM
19 | Cc1cc([C@@H](C)Nc2ccc(Cl)nc2C(=O)NS(C)(=O)=O)c2nc(N3CCOC[C@H]3C)n(C)c(=O)c2c1 [Compound 55, 6-chloro-3-(((R)-1-(3,6-dimethyl-2-((R)-3-methylmorpholino)-4-oxo-3,4-dihydroquinazolin-8-yl)ethyl)amino)-N-(methylsulfonyl) picolinamide] | ≥ 1 µM | 1 to 5 µM | < 0.25 µM | 0.5 to 1 µM
